Assay results published in patent US20110166144A1, “Pyrimidotriazinediones and Pyrimidopyrimidinediones and Methods of Using the Same” (THE REGENTS OF THE UNIVERSITY OF MICHIGAN, priority 2008, published 2011).
Like-named read-outs stand apart in the source and are kept apart here.

Experiments:
[1] = system: IEC18 Rat Epithelial Cells (IEC18-S33Y); conditions: 17-20 h with compound, WST-1
Protocol: Using the above assay system, IC50 and LD50 values were determined for the pyrimidotriazinedione compounds. IEC18-S33Y cells carrying a β-catenin firefly luciferase cassette and a constitutively active renilla luciferase cassette were seeded at 40,000 cells/well in 96-well tissue culture plates (BD Biosciences, Bedford, Mass.) in a total volume of 80 μL of tissue culture medium (Dulbecco's modified Eagle medium without Phenol-Red (Invitrogen, Carlsbad, Calif.) supplemented with 10% (v/v) fetal bovine serum (Hyclone, Logan, Utah)) and incubated for 24 h. […] Working solutions of the compounds were obtained by further diluting the stock solutions in tissue culture medium by at least 50-fold. Serial twofold dilutions of the working solutions of the compounds were added to the cells in a volume of 40 μL and the cells were incubated in the presence of the compounds for 17-20 h.
LD50 values of the pyrimidotriazinediones then were determined using a WST-1 colorimetric cell proliferation assay. A mixture containing 20 μL of medium and 10 μL of WST-1 reagent (available from Roche, Indianapolis, Ind.) was added to the cells and the cells were incubated for 1 h at 37° C., after which time absorption at 550 nm was measured using a microplate reader.

β-catenin/TCF complex = assay: cells; assay type: cell-based
[2] = Pharmacokinetic properties in mice (plasma level by HPLC/MS); assay type: in vivo; conditions: 10 mg/kg, plasma 1 minute to 12 hours post-injection
Protocol: The pharmacokinetic properties of a substituted pyrimido[5,4-e][1,2,4]triazine-5,7(6H,8H)-dione of formula II (3-(4-(2-(Diethylamino)ethoxy)phenyl)-8-(3,4-difluorobenzyl)-6-methylpyrimido[5,4-e][1,2,4]triazine-5,7(6H,8H)-dione) in mice were determined by dosing a cohort of mice with 10 mg/kg compound. Blood was drawn from the mice at various time points (1 minute, 15 minutes, 30 minutes, 3 hours, 6 hours, and 12 hours) post-injection. The blood plasma was isolated from the drawn blood and the amount of compound present in the plasma was measured by HPLC with peak analysis by mass spectrometry.

[3] = Rattus norvegicus, IEC18-S33Y cells, 17-20 h with compound, β-catenin-dependent firefly luciferase with Renilla control, read-out: IC50

Row | melting point | SMILES | LD50 [1] | IC50 (β-catenin/TCF complex; [3]) | further results
1 | 220 to 223 °C | Cn1nc(-c2ccc([N+](=O)[O-])cc2)nc2c(=O)n(C)c(=O)nc1-2 | – | – | –
2 | 223 to 224 °C | Cn1nc(-c2cccc([N+](=O)[O-])c2)nc2c(=O)n(C)c(=O)nc1-2 | – | – | –
3 | 248 to 250 °C | Cn1c(=O)nc2[nH]nc(-c3ccccc3F)nc-2c1=O | – | – | –
4 | 202 to 205 °C | CCCn1c(=O)n(C)c(=O)c2nc(-c3ccc(Cl)cc3)nnc21 | – | – | –
5 | 320 °C (dec.) | Cc1ccc(Cn2c(=O)n(C)c(=O)c3nc(-c4ccccc4F)nnc32)cc1 | – | – | –
6 | 253 to 254 °C | Cn1c(=O)c2nc(-c3ccccc3)nnc2n(Cc2ccc(F)cc2)c1=O | – | – | –
7 | 251 to 254 °C | Cn1c(=O)c2nc(-c3ccc(Cl)cc3)nnc2n(Cc2ccccc2F)c1=O | – | – | –
8 | 225 to 227 °C (dec.) | Cn1c(=O)c2nc(-c3ccccc3)nnc2n(Cc2ccc(C(F)(F)F)cc2)c1=O | – | – | –
9 | 274 to 280 °C (dec.) | Cn1c(=O)c2nc(-c3ccccc3)nnc2n(Cc2ccc([N+](=O)[O-])cc2)c1=O | – | – | –
10 | 208 to 211 °C (dec.) | Cn1c(=O)nc2n(CCO)nc(-c3ccc(Cl)c(Cl)c3)nc-2c1=O | – | – | –
11 | 215 to 218 °C (dec.) | COc1ccc(-c2nc3c(=O)n(C)c(=O)nc-3n(CCO)n2)cc1OC | – | – | –
12 | – | Cn1nc(-c2ccccc2)[n+]([O-])c2c(=O)n(C)c(=O)nc1-2 | 1.71 ± 46.77 µM | 490 ± 220 nM | –
13 | – | Cn1nc(-c2ccc(Cl)cc2)[n+]([O-])c2c(=O)n(C)c(=O)nc1-2 | 2.01 ± 2.58 µM | 700 ± 150 nM | –
14 | – | Cc1nc2c(=O)n(C)c(=O)nc-2n(C)n1 [Compound 5b, 1,3,6-Trimethylpyrimido[5,4-e][1,2,4]triazine-5,7(1H,6H)-dione] | 2.02 ± 0.75 µM | 1000 ± 190 nM | –
15 | – | CCc1nc2c(=O)n(C)c(=O)nc-2n(C)n1 [Compound 5c, 3-Ethyl-1,6-dimethylpyrimido[5,4-e][1,2,4]triazine-5,7(1H,6H)-dione] | 2.94 ± 10 µM | 1420 ± 250 nM | –
16 | – | Cn1nc(-c2ccccc2)nc2c(=O)n(C)c(=O)nc1-2 [Compound 5d, 1,6-Dimethyl-3-phenylpyrimido[5,4-e][1,2,4]triazine-5,7(1H,6H)-dione] | 1.39 ± 0.44 µM | 530 ± 100 nM | –
17 | – | Cc1ccc(-c2nc3c(=O)n(C)c(=O)nc-3n(C)n2)cc1 [Compound 5e, 1,6-Dimethyl-3-(4-methylphenyl)pyrimido[5,4-e][1,2,4]triazine-5,7(1H,6H)-dione] | 0.84 ± 0.25 µM | 680 ± 90 nM | –
18 | – | Cn1nc(-c2ccc(F)cc2)nc2c(=O)n(C)c(=O)nc1-2 [Compound 5f, 3-(4-Fluorophenyl)-1,6-dimethylpyrimido[5,4-e][1,2,4]triazine-5,7(1H,6H)-dione] | 1.10 ± 0.01 µM | 300 ± 70 nM | –
19 | – | Cn1nc(-c2ccccc2F)nc2c(=O)n(C)c(=O)nc1-2 [Compound 5g, 3-(2-Fluorophenyl)-1,6-dimethylpyrimido[5,4-e][1,2,4]triazine-5,7(1H,6H)-dione] | 0.71 ± 3.31 µM | 190 ± 14 nM | –

Row | melting point | SMILES | LD50 [1] | IC50 (β-catenin/TCF complex; [3]) | further results
20 | – | Cn1nc(-c2ccc(Cl)cc2)nc2c(=O)n(C)c(=O)nc1-2 [Compound 5h, 3-(4-Chlorophenyl)-1,6-dimethylpyrimido[5,4-e][1,2,4]triazine-5,7(1H,6H)-dione] | 2.84 ± 0.80 µM | 1050 ± 290 nM | –
21 | – | Cn1nc(-c2cccc(Cl)c2)nc2c(=O)n(C)c(=O)nc1-2 [Compound 5i, 3-(3-Chlorophenyl)-1,6-dimethylpyrimido[5,4-e][1,2,4]triazine-5,7(1H,6H)-dione] | 23.88 ± 5.17 µM | 5030 ± 1180 nM | –
22 | – | Cn1nc(-c2ccc(Cl)c(Cl)c2)nc2c(=O)n(C)c(=O)nc1-2 [Compound 5j, 3-(3,4-Dichlorophenyl)-1,6-dimethylpyrimido[5,4-e][1,2,4]triazine-5,7(1H,6H)-dione] | 30.1 ± 17.54 µM | – | IC50 (β-catenin/TCF complex; Rattus norvegicus): 9320 ± 7440 nM
23 | – | CCN(CC)CCOc1ccc(-c2nc3c(=O)n(C)c(=O)nc-3n(C)n2)cc1 [Compound 5l, 3-(4-(2-(Diethylamino)ethoxy)phenyl)-1,6-dimethylpyrimido[5,4-e][1,2,4]triazine-5,7(1H,6H)-dione] | 0.136 ± 1 µM | 16 ± 18 nM | –
24 | – | Cc1ccc(-c2n[nH]c3nc(=O)n(C)c(=O)c-3n2)cc1 [Compound 6a, 6-Methyl-3-p-tolylpyrimido[5,4-e][1,2,4]triazine-5,7(1H,6H)-dione] | >50 µM | 21100 ± 14100 nM | –
25 | – | Cn1c(=O)c2nc(-c3ccccc3F)nnc2n(Cc2ccccc2)c1=O [Compound 7d, 8-Benzyl-3-(2-fluorophenyl)-6-methylpyrimido[5,4-e][1,2,4]triazine-5,7(6H,8H)-dione] | – | 3600 ± 2250 nM | –
26 | – | Cn1c(=O)c2nc(-c3ccc(F)cc3)nnc2n(Cc2ccc(C(C)(C)C)cc2)c1=O [Compound 7h, 8-(4-tert-Butylbenzyl)-3-(4-fluorophenyl)-6-methylpyrimido[5,4-e][1,2,4]triazine-5,7(6H,8H)-dione] | – | 330 ± 10 nM | –
27 | 230 to 234 °C (dec.) | COc1ccc(-c2nnc3c(n2)c(=O)n(C)c(=O)n3Cc2ccc(F)cc2)cc1 [Compound 7j, 8-(4-Fluorobenzyl)-3-(4-methoxyphenyl)-6-methylpyrimido[5,4-e][1,2,4]triazine-5,7(6H,8H)-dione] | – | – | –
28 | – | Cn1c(=O)nc2n(CCO)nc(-c3ccccc3)nc-2c1=O [Compound 8a, 1-(2-Hydroxyethyl)-6-methyl-3-phenylpyrimido[5,4-e][1,2,4]triazine-5,7(1H,6H)-dione] | 2.09 ± 0.78 µM | 970 ± 220 nM | –
29 | – | Cc1ccc(-c2nc3c(=O)n(C)c(=O)nc-3n(CCO)n2)cc1 [Compound 8b, 1-(2-Hydroxyethyl)-6-methyl-3-(4-methylphenyl)pyrimido[5,4-e][1,2,4]triazine-5,7(1H,6H)-dione] | 2.55 ± 21.76 µM | 320 ± 230 nM | –
30 | – | Cn1c(=O)nc2n(CCO)nc(-c3ccc(Cl)cc3)nc-2c1=O [Compound 8c, 3-(4-Chlorophenyl)-1-(2-hydroxyethyl)-6-methylpyrimido[5,4-e][1,2,4]triazine-5,7(1H,6H)-dione] | 6.36 ± 21.76 µM | 4560 ± 8240 nM | –
31 | – | COc1ccc(-c2nc3c(=O)n(C)c(=O)nc-3n(CCO)n2)cc1 [Compound 8e, 1-(2-Hydroxyethyl)-3-(4-methoxyphenyl)-6-methylpyrimido[5,4-e][1,2,4]triazine-5,7(1H,6H)-5,7-dione] | 8.39 ± 10.29 µM | – | IC50 (β-catenin/TCF complex; IEC18-S33Y cells, 17-20 h with compound, β-catenin-dependent firefly luciferase with Renilla control, read-out: IC50): 6070 ± 4910 nM
32 | – | Cn1c(=O)nc2n(CCO)nc(-c3ccc(OCCN4CCCC4)cc3)nc-2c1=O [Compound 8f, 1-(2-Hydroxyethyl)-6-methyl-3-(4-(2-(pyrrolidin-1-yl)ethoxy)phenyl)pyrimido[5,4-e][1,2,4]triazine-5,7(1H,6H)-dione] | 1.55 ± 0.22 µM | 1340 ± 150 nM | –
33 | 170 to 180 °C (dec.) | CN(C)c1ccc(-c2nc3c(=O)n(C)c(=O)nc-3n(CCO)n2)cc1 [Compound 8i, 3-(4-(Dimethylamino)phenyl)-1-(2-hydroxyethyl)-6-methylpyrimido[5,4-e][1,2,4]triazine-5,7(1H,6H)-dione] | – | – | –
34 | – | Cn1c(=O)nc2n(CCO)nc(-c3ccccn3)nc-2c1=O [Compound 8j, 1-(2-Hydroxyethyl)-6-methyl-3-(pyridin-2-yl)pyrimido[5,4-e]-[1,2,4]triazine-5,7(1H,6H)-dione] | 9.55 ± 0.001 µM | 3810 ± 590 nM | –
35 | – | CCN(CC)CCOc1ccc(-c2nnc3c(n2)c(=O)n(C)c(=O)n3Cc2cccc(F)c2)cc1 [Compound 10c, 3-(4-(2-(Diethylamino)ethoxy)phenyl)-8-(3-fluorobenzyl)-6-methylpyrimido[5,4-e][1,2,4]triazine-5,7(6H,8H)-dione] | 21.49 ± 10.42 µM | 23400 ± 2830 nM | –
36 | – | CCN(CC)CCOc1ccc(-c2nnc3c(n2)c(=O)n(C)c(=O)n3Cc2ccc(F)c(F)c2)cc1 [Compound 10g, 3-(4-(2-(Diethylamino)ethoxy)phenyl)-8-(3,4-difluorobenzyl)-6-methylpyrimido[5,4-e][1,2,4]triazine-5,7(6H,8H)-dione] | 2.57 ± 10.99 µM | 700 ± 130 nM | pharmacokinetic properties as assessed by peak plasma level and half-life [2]: favorable pharmacokinetic properties
37 | 240 to 247 °C (dec.) | Cn1nc(-c2ccccc2F)nc2c(=O)[nH]c(=O)nc1-2 [Compound 17a, 3-(2-Fluorophenyl)-1-methylpyrimido[5,4-e][1,2,4]triazine-5,7(1H,6H)-dione] | – | – | –
38 | – | Cn1nc(-c2ccccc2F)nc2c(=O)n(Cc3ccc(F)c(F)c3)c(=O)nc1-2 [Compound 17e, 6-(3,4-Difluorobenzyl)-3-(2-fluorophenyl)-1-methylpyrimido[5,4-e][1,2,4]triazine-5,7(1H,6H)-dione] | 0.48 ± 0.10 µM | 110 ± 60 nM | inhibitory activity of β-catenin-mediated transcription (in words) (β-catenin/TCF complex; IEC18-S33Y cells): antagonized β-catenin-mediated transcription
